Assay results as given in patent US12459951B2, “Compounds that interact with RAS superfamily proteins for treatment of cancers, inflammatory diseases, rasopathies, and fibrotic disease” (SHY Therapeutics, LLC, priority 2022, dated 2025).
Where a name gives a salt, the structure may show the parent alone.

The compounds below were run on MAPK p38 phosphorylation (assay: MAPK p38 Activation Assay (western blot), Panc-1). Conditions: at 10 μM, Panc-1 pancreatic cancer cell line; starred symbols = activation.
Type: cell-based, human
Method in brief: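 Panc-1 cells (KRas G12D) were treated with compound for 6 h at 37 °C, at 10 μM or as serial dilutions for IC50, with 0.3% DMSO. Method 1 used overnight serum-starved cells (0.5% FBS) stimulated with 1.5 ng/ml EGF for 15 min; Method 2 used unstimulated cells in 10% FBS. Phospho-p38 (Thr180/Tyr182) was detected by western blot.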
For `COCC1CCN(c2nc(-c3nccn3C)nn3cc(-c4ccn(C(C)C)n4)c(-c4ccccc4)c23)C1.Cl` (racemic) [Compound 19, rac 6-(1-Isopropyl-1H-pyrazol-3-yl)-4-(3-(methoxymethyl)pyrrolidin-1-yl)-2-(1-methyl-1H-imidazol-2-yl)-5-phenylpyrrolo[2,1-f][1,2,4]triazine hydrochloride salt], the “% inh of MAPK p38 in Panc-1” value was “H* (H* ≥ 100% activation)”.
For `COC1CCCN(c2nc(-c3nccn3C)nn3cc(-c4ccn(C(C)C)n4)c(C)c23)C1` (racemic) [Compound 4, rac 6-(1-Isopropyl-1H-pyrazol-3-yl)-5-methyl-2-(1-methyl-1H-imidazol-2-yl)-4-(3-(oxo-γ6-methyl)piperidin-1-yl)pyrrolo[2,1-f][1,2,4]triazine], the “% inh of MAPK p38 in Panc-1” value was “G* (G* = 75-99% activation)”.
In the case of `COCC1CCN(c2nc(-c3nccn3C)nn3cc(-c4ccn(C(C)C)n4)c(C)c23)C1` (racemic) [Compound 2, rac 6-(1-Isopropyl-1H-pyrazol-3-yl)-4-(3-(methoxymethyl)pyrrolidin-1-yl)-5-methyl-2-(1-methyl-1H-imidazol-2-yl)pyrrolo[2,1-f][1,2,4]triazine], the “% inh of MAPK p38 in Panc-1” value is reported as “H* (H* ≥ 100% activation)”.
In the case of `CO[C@H]1CC[C@@H](Nc2nc(-c3nccn3C)nn3cc(-c4ccn(C(C)C)n4)c(-c4ccccc4)c23)C1` (racemic) [Compound 18, rac 6-(1-Isopropyl-1H-pyrazol-3-yl)-N-((1R,3S)-3-methoxycyclopentyl)-2-(1-methyl-1H-imidazol-2-yl)-5-phenylpyrrolo[2,1-f][1,2,4]triazin-4-amine hydrochloride], the “% inh of MAPK p38 in Panc-1” value is reported as “H* (H* ≥ 100% activation)”.
With `COc1cccc(-c2cn3nc(-c4nccn4C)nc(N[C@@H]4CC[C@@H](OC)C4)c3c2-c2ccccc2)c1Cl.Cl` (racemic) [Compound 34, rac 6-(2-Chloro-3-methoxyphenyl)-N-((1R,3R)-3-methoxycyclopentyl)-2-(1-methyl-1H-imidazol-2-yl)-5-phenylpyrrolo[2,1-f][1,2,4]triazin-4-amine hydrochloride] the “% inh of MAPK p38 in Panc-1” value was “H (H = 100% inhibition)”.
